This passage reports hygroscopicity results from patent US20260217668A1, “CRYSTALLINE FORMS OF A LPA1 ANTAGONIST” (Bristol-Myers Squibb Company, priority 2022, published 2026).

A short description of this data set: Moisture sorption isotherms. It is filed as physicochemical. The note with it: moisture sorption at 25° C., 4 to 95% RH (FIG. 4). The protocol: Moisture sorption isotherms were collected in a TA Instrument VTI-SA+ Vapor Sorption Analyzer using approximately 270 mg of sample in a 250 μL ceramic pan. The sample was dried at 30° C. until the loss rate of 0.005 wt %/min was obtained for 10 minutes. The sample was tested at 25° C. and 4, 5, 15, 25, 35, 45, 50, 65, 75, 85, and 95% RH. Equilibration at each RH was reached when the rate of 0.01 wt %/min for 35 minutes was achieved or a maximum of 600 minutes.

Regarding `CCCN(C)C(=O)OCc1c(-c2ccc(O[C@H]3CCC[C@H](C(=O)O)C3)c(C)n2)nnn1C` [Form A], the hygroscopicity entry is on record as “non-hygroscopicity”.
